Experimental data taken from ChEMBL document CHEMBL1201862, “PubChem BioAssay data set” (2004).
Active and inactive are the calls of the source.

Assays:
[1] = test system: Streptococcus sp. 'group A'; test: Streptococcus pyogenes SK(-)GAS viability under kanamycin – luminescence, BacTiterGlo, confirmation, counter-screen for streptokinase expression inhibitor project, dose response (AID 1900); assay type: functional, organism-based
Streptokinase A = molecular target: T1, Streptokinase A (Streptococcus pyogenes serotype M1, UniProt P10520); test: viability-normalized secreted streptokinase activity reduction – plasminogen activation absorbance, OD405, dose response (AID 1914); assay type: functional, Streptococcus pyogenes M1 GAS;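 note: secreted streptokinase activity via plasminogen activation per viability signal from cell pellet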
T1 sequence (P10520 whole entry): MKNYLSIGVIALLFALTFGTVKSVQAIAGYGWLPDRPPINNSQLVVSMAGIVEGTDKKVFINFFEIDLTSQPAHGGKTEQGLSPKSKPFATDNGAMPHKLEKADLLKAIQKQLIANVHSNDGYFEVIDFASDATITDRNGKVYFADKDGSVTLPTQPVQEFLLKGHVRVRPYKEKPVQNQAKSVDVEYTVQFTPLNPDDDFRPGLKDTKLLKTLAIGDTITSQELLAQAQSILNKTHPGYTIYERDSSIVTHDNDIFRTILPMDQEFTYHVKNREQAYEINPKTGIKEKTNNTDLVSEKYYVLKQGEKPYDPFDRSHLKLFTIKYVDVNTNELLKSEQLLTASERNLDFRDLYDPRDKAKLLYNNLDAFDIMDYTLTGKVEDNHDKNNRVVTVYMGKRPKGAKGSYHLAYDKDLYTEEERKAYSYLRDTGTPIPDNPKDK

Streptococcus = test: GAS UMAA2166 growth inhibition – luminescence, BacTiterGlo, counter-screen for streptokinase expression inhibitor project, dose response (AID 1915); assay type: functional, organism-based;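 note: potency for reduction of bacterial viability or growth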
[2] = molecular target: T2, Short transient receptor potential channel 4 (Mus musculus, UniProt Q9QUQ5); test: calcium entry via TRPC4 opening agents – cell-based, HEK293 TRPC4/mu-opioid, Fluo-4 calcium, dose response (AID 434937); assay type: functional
T2 sequence (Q9QUQ5 whole entry): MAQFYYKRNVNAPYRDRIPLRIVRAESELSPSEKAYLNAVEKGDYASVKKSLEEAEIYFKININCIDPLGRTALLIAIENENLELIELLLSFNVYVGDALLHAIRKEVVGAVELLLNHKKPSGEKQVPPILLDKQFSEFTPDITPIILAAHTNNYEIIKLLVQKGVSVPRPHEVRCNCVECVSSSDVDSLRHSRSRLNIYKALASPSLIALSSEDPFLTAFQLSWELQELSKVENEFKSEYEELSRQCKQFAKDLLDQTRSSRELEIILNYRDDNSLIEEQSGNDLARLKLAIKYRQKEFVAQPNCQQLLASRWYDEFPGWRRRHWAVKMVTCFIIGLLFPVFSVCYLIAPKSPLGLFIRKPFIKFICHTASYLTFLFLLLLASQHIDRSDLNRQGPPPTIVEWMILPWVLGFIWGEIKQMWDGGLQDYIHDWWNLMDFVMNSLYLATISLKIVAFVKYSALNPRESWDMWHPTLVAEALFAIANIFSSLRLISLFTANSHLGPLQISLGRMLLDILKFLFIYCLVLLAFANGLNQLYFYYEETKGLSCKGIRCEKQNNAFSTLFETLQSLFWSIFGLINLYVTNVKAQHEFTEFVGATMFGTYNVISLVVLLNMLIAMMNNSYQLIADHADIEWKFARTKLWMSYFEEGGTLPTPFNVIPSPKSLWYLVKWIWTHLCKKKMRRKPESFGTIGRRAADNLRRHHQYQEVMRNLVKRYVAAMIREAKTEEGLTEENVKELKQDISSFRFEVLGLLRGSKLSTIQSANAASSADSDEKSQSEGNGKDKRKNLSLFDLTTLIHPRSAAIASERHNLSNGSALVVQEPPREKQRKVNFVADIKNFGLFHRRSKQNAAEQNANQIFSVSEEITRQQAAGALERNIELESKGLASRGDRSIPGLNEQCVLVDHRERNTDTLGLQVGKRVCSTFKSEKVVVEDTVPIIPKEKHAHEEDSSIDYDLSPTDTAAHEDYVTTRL

Vero [3] = test: cells; assay type: functional; details: Chlorocebus sabaeus
Cytochrome P450 2D6 = Cytochrome P450 2D6 (Homo sapiens, UniProt P10635);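 note: CYP2D6 member of a cytochrome P450 panel assay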
Cytochrome P450 3A4 = Cytochrome P450 3A4 (Homo sapiens, UniProt P08684);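 note: CYP3A4 tested as one member of a cytochrome P450 panel screen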
Cytochrome P450 2C9 = Cytochrome P450 2C9 (Homo sapiens, UniProt P11712)
[4] = decrease of insulin promoter-GFP reporter – imaging, high-content screening, mouse beta cells (AID 1628); assay type: functional; details: MIN6
[5] = MIN6 cell viability loss – mouse insulinoma, cytotoxicity control, dose response (AID 2122); assay type: functional;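 note: confirmatory high-throughput counterscreen run to flag cytotoxic compounds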
[6] = luciferase reporter signal suppression in cells – H4 neuroglioma cells, luminescence, dose response (AID 1990); assay type: functional, cell-based
[7] = Luminescence Cell-Based Dose Response HTS to Identify Inhibitors of 5'UTR Stem-Loop Driven Prion Protein mRNA Translation in H4 Neuroglioblastoma Cells. [Related pubchem assays: 1827 (Project Summary), 1813 (Primary HTS)]; assay type: functional
[8] = alpha-synuclein stem-loop luciferase translation blockers – H4 neuroglioma cells, luminescence, confirmation (AID 1988); assay type: functional, cell-based
[9] = Trypanosoma cruzi growth suppression in host cells – NIH3T3 host cells, beta-gal luminescence, confirmation (AID 2044); assay type: functional, cell-based;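 note: intracellular parasites grown in NIH/3T3 mouse fibroblasts as host cells; luminescent beta-galactosidase reporter signal from transgenic T. cruzi replicating inside host cells; inhibitors lower the luminescence signal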
[10] = NIH3T3 cell viability loss – ATP luminescence, mouse fibroblasts, counter-screen, dose response (AID 2010); assay type: functional, cell-based;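 note: cells exposed to compound for about 90 hours before reading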
Vero [11] = test: viability of Vero cells under compound – cytotoxicity control for flavivirus capping enzyme inhibitors (AID 588742); assay type: functional; details: Chlorocebus sabaeus
Genome polyprotein = Genome polyprotein (dengue virus type 2, UniProt P29990); test: flavivirus cap methylation enzyme inhibition – biochemical, confirmation dose response, primary screen (AID 588689); assay type: functional
[12] = molecular target: T3, Polyadenylate-binding protein 1 (Homo sapiens, UniProt P11940); test: MLLE binding blockers, Cy5 peptide tracer – biochemical, fluorescence polarization, Cy5-PAM2 peptide, secondary, miRNA deadenylation inhibitor project, dose response (AID 602260); assay type: functional; details: read-out: IC50_Mean
[13] = molecular target: T3, Polyadenylate-binding protein 1; test: MLLE domain peptide-binding blockers, IC50 – biochemical, fluorescence polarization, FITC-PAM2 peptide, dose response (AID 602259); assay type: functional; details: read-out: IC50_Mean

Sequence of Cytochrome P450 3A4 (P08684 whole entry): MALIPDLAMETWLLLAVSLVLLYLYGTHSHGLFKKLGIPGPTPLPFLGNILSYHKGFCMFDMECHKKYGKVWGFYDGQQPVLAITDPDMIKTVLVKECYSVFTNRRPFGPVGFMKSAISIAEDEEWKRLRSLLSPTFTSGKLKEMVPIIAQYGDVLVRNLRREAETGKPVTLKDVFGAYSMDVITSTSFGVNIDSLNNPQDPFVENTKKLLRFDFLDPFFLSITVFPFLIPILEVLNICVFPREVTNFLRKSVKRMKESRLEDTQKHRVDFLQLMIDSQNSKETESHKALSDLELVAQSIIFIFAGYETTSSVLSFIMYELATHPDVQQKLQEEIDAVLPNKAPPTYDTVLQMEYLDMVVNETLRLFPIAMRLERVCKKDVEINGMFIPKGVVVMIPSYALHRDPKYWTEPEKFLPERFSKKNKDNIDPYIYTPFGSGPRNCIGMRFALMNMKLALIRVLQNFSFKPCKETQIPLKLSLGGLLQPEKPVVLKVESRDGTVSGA
T3 sequence (P11940 whole entry, the tested form may be a part): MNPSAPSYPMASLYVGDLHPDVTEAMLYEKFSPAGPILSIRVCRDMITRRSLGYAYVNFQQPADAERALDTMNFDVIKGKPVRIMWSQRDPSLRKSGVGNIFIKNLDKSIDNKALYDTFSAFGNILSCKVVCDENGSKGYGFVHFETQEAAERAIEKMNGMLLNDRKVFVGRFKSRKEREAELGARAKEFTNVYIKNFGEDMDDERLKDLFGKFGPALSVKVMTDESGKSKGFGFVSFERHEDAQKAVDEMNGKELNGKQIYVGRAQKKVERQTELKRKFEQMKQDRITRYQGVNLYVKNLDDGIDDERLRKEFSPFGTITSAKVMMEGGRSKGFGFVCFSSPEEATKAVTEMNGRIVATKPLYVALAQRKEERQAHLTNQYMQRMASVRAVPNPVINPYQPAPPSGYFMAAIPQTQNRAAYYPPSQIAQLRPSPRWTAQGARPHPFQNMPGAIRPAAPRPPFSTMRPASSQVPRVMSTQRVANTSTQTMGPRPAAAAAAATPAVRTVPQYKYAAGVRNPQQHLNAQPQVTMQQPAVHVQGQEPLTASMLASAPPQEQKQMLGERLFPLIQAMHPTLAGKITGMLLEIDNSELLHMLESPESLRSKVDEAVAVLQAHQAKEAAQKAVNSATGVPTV
Sequence of Cytochrome P450 2C9 (P11712 whole entry): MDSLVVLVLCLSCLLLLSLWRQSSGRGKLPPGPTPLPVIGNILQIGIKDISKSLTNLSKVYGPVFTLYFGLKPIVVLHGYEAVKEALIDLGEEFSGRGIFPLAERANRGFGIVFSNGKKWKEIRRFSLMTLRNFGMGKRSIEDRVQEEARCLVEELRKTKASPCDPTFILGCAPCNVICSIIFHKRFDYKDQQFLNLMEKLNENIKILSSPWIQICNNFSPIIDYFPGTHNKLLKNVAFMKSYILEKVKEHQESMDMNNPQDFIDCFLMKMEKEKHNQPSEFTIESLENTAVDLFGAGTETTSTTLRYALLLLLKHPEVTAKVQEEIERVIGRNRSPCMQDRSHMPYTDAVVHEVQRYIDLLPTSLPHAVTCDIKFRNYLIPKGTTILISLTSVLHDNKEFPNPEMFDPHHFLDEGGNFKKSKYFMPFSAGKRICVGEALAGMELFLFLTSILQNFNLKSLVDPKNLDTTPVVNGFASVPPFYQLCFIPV
Sequence of Cytochrome P450 2D6 (P10635 whole entry): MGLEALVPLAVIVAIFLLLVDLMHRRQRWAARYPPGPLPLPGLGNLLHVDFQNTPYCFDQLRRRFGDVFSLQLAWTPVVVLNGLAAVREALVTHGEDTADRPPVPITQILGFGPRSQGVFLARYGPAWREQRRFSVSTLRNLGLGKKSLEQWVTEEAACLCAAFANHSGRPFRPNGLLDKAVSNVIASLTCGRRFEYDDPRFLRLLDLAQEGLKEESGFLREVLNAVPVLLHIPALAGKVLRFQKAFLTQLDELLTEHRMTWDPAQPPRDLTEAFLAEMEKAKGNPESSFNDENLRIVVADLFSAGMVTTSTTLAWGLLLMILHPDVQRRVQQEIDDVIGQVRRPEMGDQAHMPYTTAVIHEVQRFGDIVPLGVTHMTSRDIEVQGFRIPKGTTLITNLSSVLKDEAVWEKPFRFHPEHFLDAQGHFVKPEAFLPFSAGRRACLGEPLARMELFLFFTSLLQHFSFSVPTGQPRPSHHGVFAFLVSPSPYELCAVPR
Sequence of Genome polyprotein (P29990 2492-3391 limits assumed): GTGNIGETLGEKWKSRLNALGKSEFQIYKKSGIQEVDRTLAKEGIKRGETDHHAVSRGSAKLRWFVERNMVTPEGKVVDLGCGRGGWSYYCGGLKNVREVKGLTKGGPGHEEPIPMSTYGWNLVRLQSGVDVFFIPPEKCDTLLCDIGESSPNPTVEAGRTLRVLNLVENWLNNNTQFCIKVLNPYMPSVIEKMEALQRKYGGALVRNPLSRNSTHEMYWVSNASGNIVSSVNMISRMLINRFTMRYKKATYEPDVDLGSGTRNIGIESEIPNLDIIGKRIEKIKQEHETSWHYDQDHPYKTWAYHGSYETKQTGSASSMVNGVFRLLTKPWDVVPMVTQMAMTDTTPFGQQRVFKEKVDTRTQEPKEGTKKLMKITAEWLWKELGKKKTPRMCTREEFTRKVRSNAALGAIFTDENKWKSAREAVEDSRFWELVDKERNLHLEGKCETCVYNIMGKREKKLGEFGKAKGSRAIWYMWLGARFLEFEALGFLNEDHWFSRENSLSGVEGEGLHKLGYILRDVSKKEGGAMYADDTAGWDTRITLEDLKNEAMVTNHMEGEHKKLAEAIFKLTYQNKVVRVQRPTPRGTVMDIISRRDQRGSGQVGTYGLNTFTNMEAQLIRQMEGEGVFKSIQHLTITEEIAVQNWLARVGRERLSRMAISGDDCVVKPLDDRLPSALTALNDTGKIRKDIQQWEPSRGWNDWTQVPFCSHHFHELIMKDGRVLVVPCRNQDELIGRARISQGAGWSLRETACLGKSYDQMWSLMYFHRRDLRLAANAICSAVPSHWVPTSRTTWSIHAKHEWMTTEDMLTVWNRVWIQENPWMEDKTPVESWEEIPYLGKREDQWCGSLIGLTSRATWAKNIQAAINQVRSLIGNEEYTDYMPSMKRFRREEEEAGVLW

## O=C(N/N=C/c1cc([N+](=O)[O-])cc(Br)c1O)C12CC3CCC(CC(C3)C1)C2
[1]
  EC50: 4.67 µM (active)
Streptokinase A
  EC50: > 150 µM (not active)
Streptococcus
  EC50: 19.7 µM (active)
[2]
  EC50: 2.99 µM (active)
Vero [3]
  CC50: > 25 µM (active)

## COc1ccc(C2=NOC(C(=O)N3CCCc4ccccc43)C2)cc1 (stereo not drawn)
Cytochrome P450 2D6
  AC50: 20 µM (inconclusive)
Cytochrome P450 3A4
  AC50: 12.6 µM (inconclusive)
Cytochrome P450 2C9
  AC50: inconclusive

## Cc1ccccc1/N=C/C=C1\N(C)c2ccccc2C1(C)C
[4]
  IC50: 2.44 µM (active)
[5]
  IC50: 5.61 µM (active)

## COCCCNC(=O)C1CCN(S(=O)(=O)N(CC(C)C)CC(C)C)CC1
Cytochrome P450 3A4
  AC50: 22.4 µM (inconclusive)
Cytochrome P450 2C9
  AC50: inconclusive

## O=C1c2ccc3c4c(ccc(c24)C(=O)N1CCCCO)C(=O)N(CCCCO)C3=O
[6]
  EC50: > 120 µM (not active)
[4]
  IC50: 2.96 µM (active)
[7]
  EC50: 13.6 µM (active)
[5]
  IC50: 1.99 µM (active)
[8]
  EC50: 3.4 µM (active)
[9]
  EC50: 2.25 µM (active)
[10]
  EC50: 4.23 µM (active)
Vero [11]
  CC50: 5.55 µM (active)
Genome polyprotein
  IC50: > 100 µM (active)
[12]
  IC50: > 66 µM (inactive)
[13]
  IC50: 23.8 µM (inactive)
